Test results: US20240041765A1, “ORAL LIQUID SUSPENSION OF PAN-RAF KINASE INHIBITOR” (DAY ONE BIOPHARMACEUTICALS, INC., priority 2022, published 2024)

Experiment: Single oral dose mouse PK in male CD-1 mice
Format: in vivo
Settings: plasma, single oral dose 50 mg/kg, Mean ± SD, n = 3, vehicle: Group 1 100% PEG400, Groups 2-3 DI water, Group 4 0.5% methylcellulose in water (w/v)
Protocol: Amorphous solid dispersions of Compound A in aqueous suspension formulations were administered via oral gavage in male CD-1 mice to assess Compound A plasma exposure. Pharmacokinetics (PK) of Compound A crystalline drug substance dissolved in organic solvent (PEG400) were used to generate a solution formulation—also included as the comparator group in this study. The concentrations of Compound A in mouse plasma were quantified with a qualified LC-MS/MS method.
Each oral dosing group consisted of 3 male CD-1 mice. At dosing, the animals weighted between 0.0297 to 0.0376 kg. Animals were not fasted prior to oral administration in this study. Compound A drug substances in corresponding dosing vehicles were administered by oral route using polypropylene gavage tube to CD-1 mice. Serial blood samples were collected at 0.25, 0.50, 1, 4, 8 and 24 hours post-dose. Serial blood samples were collected from a tail vein or another approved method at 0.25, 0.50, 1, 4, 8 hours post-dose. Terminal blood collection were collected via cardiac puncture at 24 hours post-dose.
Blood samples were collected into K2EDTA tubes according to in-life study protocol and immediately placed on wet ice and then centrifuged for 10 minutes at 3500 rpm for plasma preparation. All plasma samples were placed in 96-well strip-tube rack and stored in freezer until plasma analysis. Immediately following terminal blood collection, the brain tissue was collected for each animal. Each tissue was collected into pre-weighed tube and the weight of the tissue sample was determined. Samples were flash frozen and kept on dry ice until stored at −70° C. prior to sample processing and analysis. Table 27 provides the study design for the oral administration of Compound A in mice and summary of mouse PK parameters.
Non compartmental pharmacokinetic (NCA) analysis was performed on plasma concentration data using WinNonlin module in the Phoenix Platform (version 8.3.1 or above, Certara Inc., Princeton, NJ 08540). Calculations were performed using nominal sampling times in the pharmacokinetic analysis. All pharmacokinetic parameters and summary statistics are reported to 3 significant digits except for Tmax, which is reported to 2 decimal places. • Cmax: Observed peak blood/plasma concentration • Tmax: Time to reach observed peak blood/plasma concentration • kel: Elimination rate constant determined by linear regression analysis of selected time points in the apparent terminal phase of the log plasma concentration vs. time curve (not reported) • t1/2: Apparent terminal half-life calculated as ln(2)/kel • MRT: Mean time a drug molecule resides in body • AUC0-last: Area under the plasma concentration vs. time curve from 0 to the last quantifiable concentration calculated by the linear trapezoidal method • AUC0-inf: Area under the plasma concentration vs. time curve from 0 h to infinity, calculated as AUC0-last+Clast/kel

AUC0-inf: 407 ± 20.4 µg·h/mL
AUC0-last: 300 ± 24.7 µg·h/mL
Cmax: 18300 ± 1510 ng/mL
MRTlast: 9.42 ± 0.573 h
Tmax: 8.00 ± 0.00 h
t1/2: 12.7 ± 2.30 h
Compound: C[C@@H](NC(=O)c1ncnc(N)c1Cl)c1ncc(C(=O)Nc2cc(C(F)(F)F)c(Cl)cn2)s1 [DAY 101 API]
